# Laboratory results from US20220010283A1, “METHOD FOR PRODUCING PLURIPOTENT STEM CELL HAVING RELEASED DIFFERENTIATION RESISTANCE TO MESENDODERM” (Kyoto University, priority 2018, published 2022).
# Columns and labels:
# human iPS cell line AK5 = assay: Intracellular staining and flow cytometry of pluripotency markers SOX2 and OCT3/4; type: cell-based; settings: PSCs maintained in LM511 with CHIR99021 added; immediately before initiation of differentiation (FIG. 7)
# Protocol: To detect pluripotency markers SOX2 and OCT3/4, intracellular staining was performed by flow cytometry. Briefly, dead cell staining was performed using Zombie (trade s mark) Aqua Fixable Viability Kit (BioLegend, San Diego, Calif., USA). After washing, the cells were fixed by allowing to stand for 15 min at room temperature with PerFix-nckit Reagent1. Successively, the cells were subjected to a permeation treatment by fixing with ice-cooled 100% methanol for 5 min, and incubating for 10 min at room temperature with 0.5% saponin. The cells were washed and suspended in PBS (containing 3% FBS), V450 Mouse anti-Sox2 and Alexa Fluor (registered trade mark) 488 conjugated Mouse anti-OCT3/4 (BD biosciences, Bedford, Mass., USA) was added, and the mixture was incubated on ice for 30 min. Excessive antibody was washed away and analysis was performed with FACSVerse (trade mark) (BD Biosciences).
# [1] = test system: human iPS cell line AK5 (hPSC1); assay: Differentiation into hematopoietic progenitor cells by the PSC-Sac method (CD34+CD43+ cell count); type: cell-based; settings: PSCs maintained on LM511, CHIR99021 6 nM added from 4, 3, 2 or 1 day before start of differentiation induction; vs DMSO (FIG. 2)
# Protocol: PSCs were cultured according to the previous report on various laminin E8 fragments under feeder-free conditions (Nakagawa et al., Scientific Reports, 4: 3954, 2014). Among the recombinant laminin E8 fragments used, LM511 E8 was iMatrix-511/iMatrix-511 silk (Nippi, Ibaraki, Japan), and other laminin E8 (LM421/121) fragments were provided by Dr. Kiyotoshi Sekiguchi (Institute for Protein Research, Osaka University). Each laminin fragment was added to 0.5 μg/cm^2 relative to the dish bottom area. In the laminin dilution experiment, coating was performed in the same manner as described above under the conditions of [x½], [x¼], [x⅛], [x 1/16], wherein [x1] is Laminin 511E8 0.5 μg/cm^2 condition. […]
# As a method for performing blood cell differentiation from PSCs, the PSC-Sac method, which is a co-culture method with mouse interstitial cell C3H10TR, was used (Takayama and Eto Methods Mol Biol. 2012; 788:205-17, Takaayama et al. J Exp Med. 2010 207(13): 2817-2830). […] After confirmation of the absence of intercellular adhesion, the cells were detached from the dish with Cell scraper, and the number of the cells was counted with Trypan Blue and a hemocytometer. […]
# The number of the cells was counted with Trypan Blue and a hemocytometer. […] For the measurement of hPSCs, TRA-1-60 positive cells were measured. […]
structure (smiles),measurement,setting,value
"Cc1c[nH]c(-c2cnc(NCCNc3ccc(C#N)cn3)nc2-c2ccc(Cl)cc2Cl)n1 [CHIR99021, 6-[2-[4-(2,4-Dichlorophenyl)-5-(4-methyl-1H-imidazol-2-yl)pyrimidin-2-ylamino]ethylamino]pyridine-3-carbonitrile]",number of cells maintaining positive pluripotency for both OCT3/4 and SOX2,human iPS cell line AK5,decreased
same,number of hematopoietic progenitor cells,[1],the number of hematopoietic progenitor cells could be increased
